The values that follow come from patent US7435837B2, “Dihydrobenzofuranyl alkanamine derivatives and methods for using same” (Wyeth, priority 2003, dated 2008).

One assay deals with T1, human 5-HT2C receptor (Homo sapiens, UniProt P28335).
T1 sequence (P28335 33-458): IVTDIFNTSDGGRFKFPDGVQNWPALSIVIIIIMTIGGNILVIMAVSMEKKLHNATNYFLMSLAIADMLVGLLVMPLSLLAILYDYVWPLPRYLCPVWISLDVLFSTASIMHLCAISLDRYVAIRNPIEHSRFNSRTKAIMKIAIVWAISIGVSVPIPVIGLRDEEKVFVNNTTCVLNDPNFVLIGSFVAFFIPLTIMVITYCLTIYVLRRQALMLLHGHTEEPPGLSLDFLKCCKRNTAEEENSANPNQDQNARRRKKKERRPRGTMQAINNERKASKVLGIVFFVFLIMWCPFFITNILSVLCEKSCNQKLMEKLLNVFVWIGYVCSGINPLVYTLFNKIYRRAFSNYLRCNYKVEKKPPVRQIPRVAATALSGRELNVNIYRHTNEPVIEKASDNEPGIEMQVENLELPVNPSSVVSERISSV
The experiment in a line: 5-HT2C receptor-stimulated calcium mobilization (FLIPR) in CHO cells.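 As to all read-outs here: Fluo-3-AM fluorescence read on FLIPR every 1 s, agonist added after 10 baseline reads, response taken as peak minus lowest raw fluorescence count.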 The conditions noted are these: for Emax: CHO, percentage of the response observed with a maximally effective concentration of 5-HT, read-out: 5-HT2C Function Emax (%); for EC50: calcium mobilization, CHO cells stably expressing human 5-HT2C, read-out: 5-HT2C Function EC50. In kind it is cell-based.

Assay [1] addresses T2, human 5-hydroxytryptamine-2C (h5-HT2C) receptor (Homo sapiens, UniProt P28335).
T2 construct: expressed in transfected cells; host or cells: CHO (Chinese Hamster Ovary) cells; membranes
T2 sequence (P28335 33-458): T1 sequence (P28335 33-458)
In words: [125I]DOI binding to membranes of CHO cells expressing the human 5-HT2C receptor. The conditions noted are these: [125I]DOI radioligand, CHO cell membranes, room temperature 60 min; read-out: 5-HT2C Affinity Ki.

Turning to `NCC1Cc2cc(Cl)cc(-c3cccc(F)c3F)c2O1` (racemic) [Example 244, (±)-{[5-chloro-7-(2,3-difluorophenyl)-2,3-dihydro-1-benzofuran-2-yl]methyl}amine], on human 5-HT2C receptor, the Emax (as a rule, the size of the effect at its maximum, as opposed to the concentration needed) was determined as 90% and the 50% effective concentration (EC50) (usually the concentration needed to bring the measured effect to its halfway point) is 52 nM. For the same compound, the Ki (usually the equilibrium dissociation constant of an inhibitor or competing ligand from its target) in assay [1] worked out at 0.74 nM.

`NCC1Cc2cc(Cl)cc(-c3cccc(Cl)c3Cl)c2O1` (racemic) [Example 247, (±)-{[5-chloro-7-(2,3-dichlorophenyl)-2,3-dihydro-1-benzofuran-2-yl]methyl}amine]: on human 5-HT2C receptor, the Emax stood at 90% and the EC50 is 164 nM. For the same compound, in assay [1], the Ki turned out to be 15 nM.

As for `Cc1cccc(-c2cc(Cl)cc3c2OC(CN)C3)c1C` (racemic) [Example 248, (±)-{[5-chloro-7-(2,3-dimethylphenyl)-2,3-dihydro-1-benzofuran-2-yl]methyl}amine], on human 5-HT2C receptor, the Emax is 80% and the EC50 was determined as 225 nM. Besides, the Ki in assay [1] was 9 nM.

Take `COc1cccc(-c2cc(Cl)cc3c2OC(CN)C3)c1OC` (racemic) [Example 249, (±)-{[5-chloro-7-(2,3-dimethoxyphenyl)-2,3-dihydro 1-benzofuran-2-yl]methyl}amine]: at human 5-HT2C receptor, the Emax amounted to 90% and the EC50 is 21 nM. The Ki in assay [1] was found to be 4 nM.

For `NCC1Cc2cc(Cl)cc(-c3ccc(F)cc3F)c2O1` (racemic) [Example 250, (±)-{[5-chloro-7-(2,4-difluorophenyl)-2,3-dihydro-1-benzofuran-2-yl]methyl}amine], on human 5-HT2C receptor, the Emax is 90% and the EC50 was 72 nM. For the same compound, the Ki in assay [1] came to 2.5 nM.

`NCC1Cc2cc(Cl)cc(-c3ccc(Cl)cc3Cl)c2O1` (racemic) [Example 251, (±)-{[5-chloro-7-(2,4-dichlorophenyl)-2,3-dihydro-1-benzofuran-2-yl]methyl}amine]: at human 5-HT2C receptor, the maximal response (Emax) came to 90% and the concentration for a half-maximal effect (EC50) came out at 8 nM. Also, in assay [1], the inhibition constant (Ki) was 0.38 nM.

In the case of `COc1ccc(-c2cc(Cl)cc3c2OC(CN)C3)c(OC)c1` (racemic) [Example 254, (±)-{[5-chloro-7-(2,4-dimethoxyphenyl)-2,3-dihydro-1-benzofuran-2-yl]methyl}amine], on human 5-HT2C receptor, the Emax was 90% and the concentration giving a half-maximal response (EC50) was found to be 11 nM. Moreover, in assay [1], the inhibition constant Ki amounted to 0.89 nM.

In the case of `NCC1Cc2cc(Cl)cc(-c3cc(F)ccc3F)c2O1` (racemic) [Example 255, (±)-{[5-chloro-7-(2,5-difluorophenyl)-2,3-dihydro-1-benzofuran-2-yl]methyl}amine], at human 5-HT2C receptor, the maximal response (Emax) stood at 90% and the EC50 was found to be 79 nM. Besides, the Ki in assay [1] was 5 nM.

With `NCC1Cc2cc(Cl)cc(-c3cc(Cl)ccc3Cl)c2O1` (racemic) [Example 256, (±)-{[5-chloro-7-(2,5-dichlorophenyl)-2,3-dihydro-1-benzofuran-2-yl]methyl}amine], at human 5-HT2C receptor, the maximal response (Emax) came to 100% and the concentration giving a half-maximal response (EC50) worked out at 4 nM. Also, the Ki in assay [1] was 0.74 nM.

As to `COc1ccc(Cl)cc1-c1cc(Cl)cc2c1OC(CN)C2` (racemic) [Example 257, (±)-{[5-chloro-7-(5-chloro-2-methoxyphenyl)-2,3-dihydro-1-benzofuran-2-yl]methyl}amine], at human 5-HT2C receptor, the maximum response (Emax) stood at 80% and the EC50 was found to be 194 nM. Further, the inhibition constant Ki in assay [1] is 28 nM.

For `NCC1Cc2cc(Cl)cc(-c3ccc(F)c(F)c3)c2O1` (racemic) [Example 258, (±)-{[5-chloro-7-(3,4-difluorophenyl)-2,3-dihydro-1-benzofuran-2-yl]methyl}amine], at human 5-HT2C receptor, the Emax came out at 80% and the 50% effective concentration (EC50) came out at 734 nM. Moreover, the inhibitory constant (Ki) in assay [1] turned out to be 42 nM.

In the case of `Cc1cccc(C)c1-c1cc(Cl)cc2c1OC(CN)C2` (racemic) [Example 260, (±)-{[5-chloro-7-(2,6-dimethylphenyl)-2,3-dihydro-1-benzofuran-2-yl]methyl}amine], on human 5-HT2C receptor, the Emax came out at 90% and the concentration giving a half-maximal response (EC50) stood at 22 nM. In addition, in assay [1], the inhibitory constant (Ki) was found to be 0.13 nM.

Turning to `NCC1Cc2cc(Cl)cc(-c3c(Cl)cccc3Cl)c2O1` (racemic) [Example 263, (±)-{[5-chloro-7-(2,6-dichlorophenyl)-2,3-dihydro-1-benzofuran-2-yl]methyl}amine], on human 5-HT2C receptor, the maximal response (Emax) was 100% and the 50% effective concentration (EC50) is 0.8 nM. For the same compound, the Ki in assay [1] was determined as 1.8 nM.

For `NCC1Cc2cc(Cl)cc(-c3cccnc3)c2O1` (racemic) [Example 266, (±)-{[(5-chloro-7-pyridin-3-yl-2,3-dihydro-1-benzofuran-2-yl)methyl]amine], on human 5-HT2C receptor, the Emax stood at 90% and the half-maximal effective concentration (EC50) was 3 nM. Besides, in assay [1], the Ki worked out at 4.9 nM.

For the compound `Cc1cc2c(c(-c3ccccc3)c1)OC(CN)C2` (racemic) [Example 281, (±)-{[(5-methyl-7-phenyl-2,3-dihydro-1-benzofuran-2-yl)methyl]amine], at human 5-HT2C receptor, the Emax stood at 90% and the EC50 came out at 35 nM. Moreover, the Ki in assay [1] worked out at 3.8 nM.

In the case of `Cc1cc2c(c(-c3ccccc3C)c1)OC(CN)C2` (racemic) [Example 282, (±)-{[7-(2-methylphenyl)-5-methyl-2,3-dihydro-1-benzofuran-2-yl]methyl}amine], at human 5-HT2C receptor, the Emax was 90% and the half-maximal effective concentration (EC50) was found to be 43 nM. In addition, the inhibition constant Ki in assay [1] is 1.7 nM.

For `Cc1cc2c(c(-c3ccccc3F)c1)OC(CN)C2` (racemic) [Example 283, (±)-{[7-(2-fluorophenyl)-5-methyl-2,3-dihydro-1-benzofuran-2-yl]methyl}amine], on human 5-HT2C receptor, the Emax was determined as 100% and the EC50 was 6 nM. In addition, in assay [1], the Ki worked out at 1.2 nM.

As for `COc1ccccc1-c1cc(C)cc2c1OC(CN)C2` (racemic) [Example 284, (±)-{[7-(2-methoxyphenyl)-5-methyl-2,3-dihydro-1-benzofuran-2-yl]methyl}amine], on human 5-HT2C receptor, the Emax worked out at 100% and the 50% effective concentration (EC50) was found to be 7 nM. In addition, the Ki in assay [1] is 0.8 nM.

`Cc1cc2c(c(-c3ccccc3Cl)c1)OC(CN)C2` (racemic) [Example 286, (±)-{[7-(2-chlorophenyl)-5-methyl-2,3-dihydro-1-benzofuran-2-yl]methyl}amine]: on human 5-HT2C receptor, the maximal response (Emax) was 100% and the concentration giving a half-maximal response (EC50) was found to be 6 nM. Further, the Ki in assay [1] came out at 0.76 nM.

Turning to `Cc1cc2c(c(-c3ccccc3C(F)(F)F)c1)OC(CN)C2` (racemic) [Example 287, (±)-({5-methyl-7-[2-(trifluoromethyl)phenyl[-2,3-dihydro-7-benzofuran-2-yl}methyl)amine], at human 5-HT2C receptor, the maximal response (Emax) is 90% and the half-maximal effective concentration (EC50) was 21 nM. Besides, in assay [1], the Ki stood at 0.13 nM.

In the case of `Cc1cc2c(c(-c3cccc(Cl)c3)c1)OC(CN)C2` (racemic) [Example 288, (±)-{[7-(3-chlorophenyl)-5-methyl-2,3-dihydro-1-benzofuran-2-yl]methyl}amine], on human 5-HT2C receptor, the Emax came out at 100% and the EC50 came to 38 nM. Moreover, the Ki in assay [1] was found to be 7.1 nM.

`Cc1cccc(-c2cc(C)cc3c2OC(CN)C3)c1` (racemic) [Example 289, (±)-{[7-(3-methylphenyl)-5-methyl-2,3-dihydro-1-benzofuran-2-yl]methyl}amine]: on human 5-HT2C receptor, the maximum response (Emax) amounted to 100% and the concentration giving a half-maximal response (EC50) came out at 44 nM. Further, the inhibition constant (Ki) in assay [1] came to 1 nM.

For `Cc1ccc(-c2cc(C)cc3c2OC(CN)C3)cc1` (racemic) [Example 290, (±)-{[7-(4-methylphenyl)-5-methyl-2,3-dihydro-1-benzofuran-2-yl]methyl}amine], on human 5-HT2C receptor, the Emax worked out at 80% and the EC50 is 58 nM. Also, in assay [1], the Ki came out at 1.7 nM.

With `Cc1cc2c(c(-c3ccc(F)cc3)c1)OC(CN)C2` (racemic) [Example 291, (±)-{[7-(4-fluorophenyl)-5-methyl-2,3-dihydro-1-benzofuran-2-yl]methyl}amine], on human 5-HT2C receptor, the Emax was 100% and the EC50 was 22 nM. In assay [1], the inhibitory constant (Ki) worked out at 0.4 nM.

In the case of `Cc1cc2c(c(-c3ccc(Cl)cc3)c1)OC(CN)C2` (racemic) [Example 292, (±)-{[7-(4-chlorophenyl)-5-methyl-2,3-dihydro-1-benzofuran-2-yl]methyl}amine], on human 5-HT2C receptor, the Emax was 100% and the EC50 is 66 nM. Moreover, the Ki in assay [1] was determined as 4.9 nM.

Consider `COc1ccc(-c2cc(C)cc3c2OC(CN)C3)cc1` (racemic) [Example 293, (±)-{[7-(4-methoxyphenyl)-5-methyl-2,3-dihydro-1-benzofuran-2-yl]methyl}amine], for which, on human 5-HT2C receptor, the Emax was determined as 90% and the EC50 is 7 nM. Moreover, the inhibition constant Ki in assay [1] was 3.8 nM.

Regarding `COc1cccc(-c2cc(C)cc3c2OC(CN)C3)c1OC` (racemic) [Example 294, (±)-{[7-(2,3-dimethoxyphenyl)-5-methyl-2,3-dihydro-1-benzofuran-2-yl]methyl}amine], at human 5-HT2C receptor, the Emax amounted to 90% and the concentration for a half-maximal effect (EC50) stood at 8 nM. For the same compound, the Ki in assay [1] stood at 0.11 nM.

In the case of `Cc1cc2c(c(-c3ccc(Cl)cc3Cl)c1)OC(CN)C2` (racemic) [Example 297, (±)-{[7-(2,4-dichlorophenyl)-5-methyl-2,3-dihydro-1-benzofuran-2-yl]methyl}amine], at human 5-HT2C receptor, the maximal response (Emax) amounted to 100% and the concentration for a half-maximal effect (EC50) came to 0.73 nM. The Ki in assay [1] worked out at 0.56 nM.
